# pIC50: −log10 of the molar value.
# Experiments:
# [1] = system: patient #2 cells (vemurafenib-resistant melanoma); test: Cell proliferation assay; type: cell-based
# [2] = system: patient #3 tumor cells; test: Cell proliferation assay; type: cell-based; details: CellTiter Glo
# [3] = system: PLX4720-resistant PDX from patient #1; test: PDX growth; type: in vivo, NSG mice; details: PLX4720 45 mg/kg, CCT compounds 20 mg/kg daily gavage
# [4] = system: patient #2 cell xenograft; test: Xenograft growth; type: in vivo, nude mice; details: for xenograft growth: PLX4720 90 mg/kg, CCT compounds 20 mg/kg oral daily, nude mice; for body weight: 20 mg/kg oral daily, patient #2 xenograft study
# [5] = system: patient #3 PDX; test: PDX growth; type: in vivo, NSG mice; details: for PDX growth: PLX4720 45 mg/kg, CCT compounds 20 mg/kg daily gavage, NSG mice; for body weight: 20 mg/kg daily gavage, patient #3 PDX study
# [6] = system: ERK and SRC in patient #3 PDX; test: pERK/pSFK immunoblot in PDX; type: in vivo, mice; details: PLX4720 45 mg/kg, CCT compounds 20 mg/kg daily gavage
# [7] = system: patient #4 PDX; test: PDX growth; type: in vivo, NSG mice; details: for PDX sensitivity: PLX4720 45 mg/kg, CCT compounds 20 mg/kg daily gavage, NSG mice; for body weight: 20 mg/kg daily gavage, patient #4 PDX study
# [8] = system: MEK, ERK and SRC/SFKs in patient #2 cells; test: pMEK, pERK, pSFK immunoblot; type: cell-based; details: 4 hr; for inhibition of MEK, ERK, and SRC: 1 μM; for inhibition of SFKs: 0.5 µM, Figure S3B
# [9] = system: caspase 3 and PARP cleavage in patient #2 cells; test: PARP and caspase 3 immunoblot; type: cell-based; details: 1 μM; 4 hr
# [10] = target: CRAF (Homo sapiens, UniProt P04049, Y340D/Y341D); test: Z'-LYTE kinase assay; type: biochemical; details: Table 1
# [11] = target: MEK1 (Homo sapiens, UniProt Q02750); test: Z'-LYTE kinase assay; type: biochemical
# [12] = target: COT (Homo sapiens, UniProt P41279); test: Z'-LYTE kinase assay; type: biochemical
# [13] = target: SRC (Homo sapiens, UniProt P12931); test: Z'-LYTE kinase assay; type: biochemical
# [14] = target: LCK (Homo sapiens, UniProt P06239); test: Z'-LYTE kinase assay; type: biochemical
# [15] = system: panel of 63 protein kinases; test: Efficacy against a panel of protein kinases; type: biochemical; details: 1 μM, percent activity compared to DMSO
# [16] = Pharmacokinetic studies, plasma, oral and intravenous dosing; type: in vivo, Balb/c mice; details: for bioavailability: Balb/c, mouse, plasma, po, 10 mg/kg; for area under the curve / plasma concentration: oral 10 mg/kg/day; for plasma concentration: 10 mg/kg/day
# [17] = Single and repeat dose tolerability / oral toxicity; type: in vivo, CD-1 mice; details: for weight loss: 30 mg/kg for 4 days
# [18] = system: melanoma and colorectal cancer cell lines that are mutant for BRAF; test: Cell growth inhibition; type: cell-based; details: Figures 2A and 2B
# [19] = system: RAS mutant melanoma and colorectal cancer cells; test: Cell growth inhibition; type: cell-based; details: Figures 2A and 2B
# [20] = system: cancer cells that are wild-type for BRAF and NRAS; test: Cell growth inhibition; type: cell-based; details: Figure 2A, in general
# [21] = system: SK-Mel 23 cells; test: Cell growth inhibition; type: cell-based; details: Figure 2A
# [22] = system: MEK and ERK in WM266.4 cells (BRAF mutant); test: pMEK/pERK immunoblot; type: cell-based; details: 24 hr
# [23] = system: MEK in NRAS mutant D04 cells; test: pMEK/pERK immunoblot; type: cell-based; details: 24 hr
# [24] = system: ERK activity in SK-Mel 23 cells; test: pERK immunoblot; type: cell-based; details: 1 μM; 4 hr
# [25] = system: BRAF^V600E A375 cells; test: Cell proliferation assay; type: cell-based; details: CellTiter Glo
# [26] = system: NRAS mutant D04 cells; test: Cell proliferation assay; type: cell-based; details: CellTiter Glo
# [27] = system: cell lines from patient #5 tumor; test: Cell proliferation assay; type: cell-based; details: CellTiter Glo
# [28] = system: A375 cells; test: Colony formation; type: cell-based; details: 0.5 μM; 20 days
# [29] = system: BRAF^V600E A375 xenograft; test: Xenograft growth; type: in vivo, nude mice
# [30] = system: NRAS mutant D04 xenograft; test: Xenograft growth; type: in vivo; details: 20 mg/kg oral daily; nude mice
# [31] = system: A375/R xenograft (PLX4720-resistant A375); test: Xenograft growth; type: in vivo, nude mice; details: 20 mg/kg oral daily; for body weight: A375/R xenograft study; for xenograft growth: nude mice
# [32] = system: PDX from patient #5; test: PDX growth; type: in vivo, NSG mice; details: for body weight: 20 mg/kg daily gavage, patient #5 PDX study; for PDX sensitivity compared with PLX4720: PLX4720 45 mg/kg, CCT compounds 20 mg/kg daily gavage, NSG mice
# [33] = system: PDX from patient #13; test: PDX growth; type: in vivo, NSG mice; details: 20 mg/kg daily gavage; patient #13 PDX study
# [34] = target: BRAF (Homo sapiens, UniProt P15056); test: Z'-LYTE kinase assay; type: biochemical
# [35] = system: BRAF^T529N,V600E; test: BRAF kinase inhibition, gatekeeper mutant; type: biochemical
# [36] = system: Ba/F3 cells transformed with BRAF^T529N,V600E; test: Growth of Ba/F3 cells; type: cell-based; details: [3H]-thymidine incorporation
# [37] = system: A375/R cells; test: Cell proliferation assay; type: cell-based; details: CellTiter Glo
# [38] = 25 mg/kg daily for 19 days, CD-1 mice
# [39] = 20 mg/kg/day oral, 7 days/week, nude mice
# Chain of MEK1 (Q02750 whole entry): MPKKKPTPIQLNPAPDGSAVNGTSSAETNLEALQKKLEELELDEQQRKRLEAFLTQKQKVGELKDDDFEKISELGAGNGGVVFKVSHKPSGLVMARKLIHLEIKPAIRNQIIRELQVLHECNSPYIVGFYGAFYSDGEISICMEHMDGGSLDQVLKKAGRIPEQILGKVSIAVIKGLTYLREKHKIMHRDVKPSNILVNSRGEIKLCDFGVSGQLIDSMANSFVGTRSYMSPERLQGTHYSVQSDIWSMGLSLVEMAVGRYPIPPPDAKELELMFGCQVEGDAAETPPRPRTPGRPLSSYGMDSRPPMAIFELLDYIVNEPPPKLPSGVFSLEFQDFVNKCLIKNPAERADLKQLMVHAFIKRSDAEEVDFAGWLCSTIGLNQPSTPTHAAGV
# Chain of LCK (P06239 whole entry): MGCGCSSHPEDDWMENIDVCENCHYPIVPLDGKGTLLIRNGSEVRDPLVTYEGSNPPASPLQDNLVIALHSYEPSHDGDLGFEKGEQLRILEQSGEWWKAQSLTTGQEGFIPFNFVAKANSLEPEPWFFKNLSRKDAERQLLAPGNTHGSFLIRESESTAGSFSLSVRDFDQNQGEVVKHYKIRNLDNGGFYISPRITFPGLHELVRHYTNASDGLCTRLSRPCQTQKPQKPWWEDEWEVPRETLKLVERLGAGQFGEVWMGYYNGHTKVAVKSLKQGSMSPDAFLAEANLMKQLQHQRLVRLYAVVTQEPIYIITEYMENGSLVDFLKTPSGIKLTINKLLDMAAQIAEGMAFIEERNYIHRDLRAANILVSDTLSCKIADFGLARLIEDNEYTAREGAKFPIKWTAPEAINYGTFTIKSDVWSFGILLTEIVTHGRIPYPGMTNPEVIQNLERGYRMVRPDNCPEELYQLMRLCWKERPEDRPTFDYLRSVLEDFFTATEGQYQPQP
# Chain of SRC (P12931 whole entry): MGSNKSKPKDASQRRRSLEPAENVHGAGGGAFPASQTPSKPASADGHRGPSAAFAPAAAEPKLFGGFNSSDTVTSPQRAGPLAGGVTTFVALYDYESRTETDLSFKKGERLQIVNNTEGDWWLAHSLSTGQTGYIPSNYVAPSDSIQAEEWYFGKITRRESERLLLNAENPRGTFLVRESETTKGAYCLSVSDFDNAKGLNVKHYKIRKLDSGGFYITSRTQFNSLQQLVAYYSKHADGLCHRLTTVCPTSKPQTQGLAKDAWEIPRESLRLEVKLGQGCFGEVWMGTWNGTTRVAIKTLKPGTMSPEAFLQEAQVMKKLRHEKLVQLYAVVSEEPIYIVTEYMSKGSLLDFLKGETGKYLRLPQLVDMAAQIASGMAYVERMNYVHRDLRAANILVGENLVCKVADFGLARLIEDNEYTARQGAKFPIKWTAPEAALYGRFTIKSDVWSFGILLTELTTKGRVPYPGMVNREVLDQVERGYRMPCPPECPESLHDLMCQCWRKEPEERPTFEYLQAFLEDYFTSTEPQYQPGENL
# Chain of COT (P41279 whole entry): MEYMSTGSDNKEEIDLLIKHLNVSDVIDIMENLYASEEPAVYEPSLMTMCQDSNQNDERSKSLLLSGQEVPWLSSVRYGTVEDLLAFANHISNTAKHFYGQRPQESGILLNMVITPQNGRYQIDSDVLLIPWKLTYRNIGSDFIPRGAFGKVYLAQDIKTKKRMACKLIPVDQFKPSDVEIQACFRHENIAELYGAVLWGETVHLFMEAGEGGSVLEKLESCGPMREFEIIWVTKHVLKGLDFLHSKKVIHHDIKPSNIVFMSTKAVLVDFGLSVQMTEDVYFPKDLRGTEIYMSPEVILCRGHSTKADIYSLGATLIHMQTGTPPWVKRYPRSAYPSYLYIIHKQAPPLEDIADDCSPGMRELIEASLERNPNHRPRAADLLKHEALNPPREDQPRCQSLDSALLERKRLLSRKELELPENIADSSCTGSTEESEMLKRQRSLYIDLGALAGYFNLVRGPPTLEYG
# Chain of CRAF (P04049 306-648 Y340D/Y341D limits assumed): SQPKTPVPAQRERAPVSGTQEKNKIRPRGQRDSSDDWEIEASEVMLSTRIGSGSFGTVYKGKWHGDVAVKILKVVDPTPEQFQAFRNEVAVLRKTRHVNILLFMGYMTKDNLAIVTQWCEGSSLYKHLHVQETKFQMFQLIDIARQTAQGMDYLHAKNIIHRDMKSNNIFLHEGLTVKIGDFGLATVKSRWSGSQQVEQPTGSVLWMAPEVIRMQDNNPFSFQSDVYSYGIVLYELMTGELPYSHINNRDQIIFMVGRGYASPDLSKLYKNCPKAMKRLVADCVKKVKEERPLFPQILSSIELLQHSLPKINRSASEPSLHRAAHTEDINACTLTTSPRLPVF
# Chain of BRAF (P15056 whole entry): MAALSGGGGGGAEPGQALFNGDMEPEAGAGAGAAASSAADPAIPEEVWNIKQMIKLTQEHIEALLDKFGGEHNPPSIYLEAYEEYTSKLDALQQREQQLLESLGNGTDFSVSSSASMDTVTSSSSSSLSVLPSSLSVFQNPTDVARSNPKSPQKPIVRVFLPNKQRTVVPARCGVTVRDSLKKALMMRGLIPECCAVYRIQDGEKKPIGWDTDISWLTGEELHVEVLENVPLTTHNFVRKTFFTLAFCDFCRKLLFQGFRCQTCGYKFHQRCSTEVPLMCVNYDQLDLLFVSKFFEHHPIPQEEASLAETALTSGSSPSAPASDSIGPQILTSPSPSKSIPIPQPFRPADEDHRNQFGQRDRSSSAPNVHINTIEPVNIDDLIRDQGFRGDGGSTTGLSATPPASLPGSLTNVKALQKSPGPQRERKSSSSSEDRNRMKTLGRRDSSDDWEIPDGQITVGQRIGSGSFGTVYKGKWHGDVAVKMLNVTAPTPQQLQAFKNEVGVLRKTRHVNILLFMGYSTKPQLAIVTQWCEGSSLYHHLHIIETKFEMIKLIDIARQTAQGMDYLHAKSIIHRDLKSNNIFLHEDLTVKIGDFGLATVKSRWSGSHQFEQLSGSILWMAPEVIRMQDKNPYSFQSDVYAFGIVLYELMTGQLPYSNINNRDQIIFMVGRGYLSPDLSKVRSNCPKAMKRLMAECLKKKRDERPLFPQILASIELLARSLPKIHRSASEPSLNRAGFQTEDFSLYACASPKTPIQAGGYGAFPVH
smiles,measurement,setting,value
"CCCS(=O)(=O)Nc1ccc(F)c(C(=O)c2c[nH]c3ncc(Cl)cc23)c1F [PLX4720, reference compound]",cell line sensitivity,[1]; CellTiter Glo,resistant
same,cell sensitivity,[2],not inhibited
same,PDX sensitivity,[3],resistance
same,xenograft growth,[4],resistant
same,PDX growth,[5],neither does it inhibit the growth
same,inhibition of ERK and SRC in PDX,[6],does not inhibit ERK or SRC
same,PDX sensitivity,[7],resistant
same,"inhibition of MEK, ERK, and SRC",[8],does not
same,caspase 3 and PARP cleavage (apoptosis),[9],does not
COc1cc2ncnc(Nc3ccc(Oc4ccccc4)cc3)c2cc1OC [SRC inhibitor 1],effect in combination with TAK632,"[1]; 40 µM SRC Inhibitor 1 with TAK632, Figure S3D",increases the activity of the pan-RAF inhibitor TAK632
same,activity alone,"[1]; CellTiter Glo, Figure S3D",inactive alone
C[S+]([O-])c1ccc(-c2nc(-c3ccncc3)c(-c3ccc(F)cc3)[nH]2)cc1 (stereo not drawn) [SB203580],cooperation with the pan-RAF inhibitors RAF265 or MLN2480,"[1]; 10 µM SB203580 in combination, Figure S3E",does not cooperate
CC(C)(C)c1cc(NC(=O)Nc2ccc(Oc3ccnc4[nH]c(=O)cnc34)cc2F)n(-c2ccccc2)n1 [CCT196969],pIC50,[10],8.00
same,pIC50,[11],< 5.00
same,pIC50,[12],< 5.00
same,pIC50,"[13]; IC50 SRC, Table 1",7.52
same,pIC50,[14],7.85
same,kinases inhibited in a panel of protein kinases,[15],"only inhibit SRC, LCK, and the p38 mitogen-activated protein kinases (MAPKs)"
same,bioavailability,[16],~55%
same,area under the curve,[16],"~416,000 nM.hr"
same,plasma concentration,[16]; at 24 hr,~1 µM
same,clinical signs and body weight,"[17]; 20 mg/kg daily × 24 days, CD-1 mice",no clinical signs or body weight loss
same,body weight and food intake,[17]; [38],did not show any body weight loss or reduction in food intake
same,clinical signs,[17]; [38],tachypnoea with decreased activity and excitation
same,mortality,[17]; [38],did not observe any mortality
same,microscopical examination of tissues,"[17]; 25 mg/kg daily for 19 days, end of the study",did not identify any treatment-related changes
same,weight loss,[17]; oral gavage,do not cause significant weight loss
same,clinical signs / adverse effects,"[17]; single dose 20 mg/kg, oral gavage, CD-1 mice",no observed adverse effects
same,body weight,"[17]; single dose 40 mg/kg, oral gavage, CD-1 mice",no effect on body weight
same,clinical signs,"[17]; single dose 40 mg/kg, oral gavage, CD-1 mice, 1 hr after dosing","slight, transient tachypnoea"
same,activity against BRAF mutant cell lines,[18],active
same,activity against RAS mutant cells,[19],also active
same,activity against BRAF and NRAS wild-type cancer cells,[20],not active
same,sensitivity of SK-Mel 23 cells,[21],sensitive
same,inhibition of MEK and ERK,[22],inhibit MEK and ERK
same,effect on MEK in NRAS mutant cells,[23],inhibit rather than activate MEK
same,ERK activity in SK-Mel 23 cells,[24],sensitive
same,"growth inhibition of BRAF mutant melanoma cells, compared with PLX4720",[25],more potently than PLX4720
same,"NRAS mutant cell growth inhibition, compared with PLX4720",[26],more efficiently than does PLX4720
same,cell line sensitivity,[1]; CellTiter Glo,sensitive
same,"growth inhibition compared with PLX4720, ARQ736, RAF265, MLN2480","[1]; CellTiter Glo, Figure S3C",more potently than any of the other inhibitors
same,cell sensitivity,[2],sensitive
same,cell sensitivity compared with PLX4720,[27],more sensitive
same,colony formation under continual exposure,[28],no cells are able to grow
same,xenograft growth,"[29]; 10 mg/kg/day, data not shown",also effective
same,xenograft growth,[29]; [39],tumor regression
same,xenograft growth,[30],inhibit the growth
same,body weight,[31],without causing any body weight loss
same,xenograft growth,[31],inhibit the growth
same,PDX sensitivity,[3],remains sensitive
same,body weight,[4],without causing any body weight loss
same,xenograft growth,[4],complete inhibition
same,body weight,[5],without causing body weight loss
same,PDX growth,[5],tumor regression
same,inhibition of ERK and SRC in PDX,[6],inhibit ERK and SRC
same,body weight,[7],do not cause body weight loss
same,PDX sensitivity,[7],sensitive
same,body weight,[32],did not observe any loss in body weight
same,PDX sensitivity compared with PLX4720,[32],more sensitive
same,body weight,[33],no body weight loss was observed
same,inhibition of SFKs,[8],also inhibit SFKs
same,"inhibition of MEK, ERK, and SRC",[8],"inhibit MEK, ERK, and SRC"
same,caspase 3 and PARP cleavage (apoptosis),[9],induce caspase 3 and PARP cleavage
CSc1cc(Oc2ccnc3[nH]c(=O)cnc23)ccc1NC(=O)Nc1cc(C(C)(C)C)nn1-c1ccccc1 [CCT241161],pIC50,[34],6.60
same,pIC50,[10],8.22
same,pIC50,[11],< 5.00
same,pIC50,[12],< 5.00
same,pIC50,[13]; inhibits SRC at,7.82
same,pIC50,[14],8.52
same,kinases inhibited in a panel of protein kinases,[15],"only inhibit SRC, LCK, and the p38 mitogen-activated protein kinases (MAPKs)"
same,"fold less active against BRAF^T529N,V600E than BRAF^V600E",[35],42 fold
same,"fold less sensitive, Ba/F3 cells transformed with BRAF^T529N,V600E vs BRAF^V600E",[36],19 fold
same,bioavailability,[16],~55%
same,area under the curve,[16],"~275,000 nM.hr"
same,plasma concentration,[16]; at 14 hr,~1 µM
same,weight loss,[17]; oral gavage,do not cause significant weight loss
same,activity against BRAF mutant cell lines,[18],active
same,activity against RAS mutant cells,[19],also active
same,activity against BRAF and NRAS wild-type cancer cells,[20],not active
same,sensitivity of SK-Mel 23 cells,[21],sensitive
same,inhibition of MEK and ERK,[22],inhibit MEK and ERK
same,effect on MEK in NRAS mutant cells,[23],inhibit rather than activate MEK
same,ERK activity in SK-Mel 23 cells,[24],sensitive
same,"growth inhibition of BRAF mutant melanoma cells, compared with PLX4720",[25],more potently than PLX4720
same,"NRAS mutant cell growth inhibition, compared with PLX4720",[26],more efficiently than does PLX4720
same,sensitivity of PLX4720-resistant A375 cells,[37],still sensitive
same,cell line sensitivity,[1]; CellTiter Glo,sensitive
same,cell sensitivity,[2],sensitive
same,cell sensitivity compared with PLX4720,[27],more sensitive
same,colony formation under continual exposure,[28],no cells are able to grow
same,xenograft growth,[29]; [39],tumor regression
same,xenograft growth,[30],inhibit the growth
same,body weight,[31],without causing any body weight loss
same,xenograft growth,[31],inhibit the growth
same,PDX sensitivity,[3],remains sensitive
same,body weight,[4],without causing any body weight loss
same,xenograft growth,[4],complete inhibition
same,body weight,[5],without causing body weight loss
same,PDX growth,[5],tumor regression
same,inhibition of ERK and SRC in PDX,[6],inhibit ERK and SRC
same,body weight,[7],do not cause body weight loss
same,PDX sensitivity,[7],sensitive
same,body weight,[32],did not observe any loss in body weight
same,PDX sensitivity compared with PLX4720,[32],more sensitive
same,body weight,[33],no body weight loss was observed
same,inhibition of SFKs,[8],also inhibit SFKs
same,"inhibition of MEK, ERK, and SRC",[8],"inhibit MEK, ERK, and SRC"
same,caspase 3 and PARP cleavage (apoptosis),[9],induce caspase 3 and PARP cleavage

# Source: article PMC4297292 (Cancer Cell, 2015)
